In assay [1] the target is T1, L98W CaFADS (Corynebacterium ammoniagenes, UniProt Q59263, L98W).
T1 construct: made in house; host or cells: E. coli BL21(DE3)
As to the kind of experiment: biochemical. The class given is biochemical. Here is the method: (§1) Reactions were initiated by the addition of ~20 nM of enzyme. After 1 min incubation at 25 °C, the reactions were stopped by boiling the mixtures for 5 min. The composition of flavins in the supernatant was determined using an Alliance HPLC system (Waters, Milford, MA, USA) equipped with a 2707 autosampler and a HSST3 column (4.6 × 150 mm, 3.5 µm, Waters) preceded by a pre-column (4.6 × 20 mm, 3.5 µm, Waters). The chromatography was developed at 1 mL/min with a 6 min isocratic program of methanol 40% (v/v) in 5 mM ammonium acetate (pH 6.0). Detection of flavins was carried out using a 2475 Multi λ fluorescence detector (Waters), excitation wavelength of 470 nm and emission wavelength of 530 nm. […] The flavinic products of the reaction were identified by their retention times and quantified through their corresponding standard curves obtained under the same conditions. Controls containing free flavins in the absence of the enzyme were treated similarly to reaction samples to discard flavin degradation during RFK activity determination. […] In case of inhibition, the experimental data were fitted to a model describing the substrate inhibition of a bi-substrate mechanism. In these situations, errors in apparent Km and kcat (^appKm and ^appkcat) increased with the inhibition constant (Ki) value getting closer to Km^S. Reaction mixtures were evaluated in triplicates, and final results are expressed as the standard error of the fitted value (value ± SE).

For assay [2], the target named is T2, P56W CaFADS (Corynebacterium ammoniagenes, UniProt Q59263, P56W).
T2 construct: made in house; host or cells: E. coli BL21(DE3)
As to the kind of experiment: biochemical. It counts as biochemical. Here is the method:
as §1

For assay [3], the target named is T3, P58W CaFADS (Corynebacterium ammoniagenes, UniProt Q59263, P58W).
T3 construct: made in house; host or cells: E. coli BL21(DE3)
Kind of assay: biochemical. The class given is biochemical. Here is the method:
as §1

Assay [4] has as its target T4, L98K CaFADS (Corynebacterium ammoniagenes, UniProt Q59263, L98K).
T4 construct: made in house; host or cells: E. coli BL21(DE3)
Kind of assay: biochemical. The class given is biochemical. Here is the method: as §1

Assay [5] concerns the target T5, L98A CaFADS (Corynebacterium ammoniagenes, UniProt Q59263, L98A).
T5 construct: made in house; host or cells: E. coli BL21(DE3)
Kind of assay: biochemical. It counts as biochemical. Here is the method: as §1

In assay [6] the target is T6, P56A/P58A CaFADS (Corynebacterium ammoniagenes, UniProt Q59263, P56A/P58A).
T6 construct: made in house; host or cells: E. coli BL21(DE3)
As to the kind of experiment: biochemical. The class given is biochemical. Here is the method: as §1

Assay [7] deals with T7, WT CaFADS (Corynebacterium ammoniagenes, UniProt Q59263).
T7 construct: made in house; host or cells: Escherichia coli
The settings on record: saturating ATP, 20 mM PIPES, 0.8 mM MgCl2, pH 7.0, 25 °C, cited from earlier work.

Assay [8] concerns CaFADS variants. As to the kind of experiment: Qualitative detection of RFK, FMNAT and FADpp activities by TLC. It counts as biochemical, Corynebacterium ammoniagenes. The settings on record: all variants, 200 nM enzyme, 50 μM flavin, 0.2 mM ATP, 10 mM MgCl2, pH 7.0, 30 min and 2 h. Here is the method:
RFK and FMNAT activities were qualitatively assayed by the incubation of enzymes with substrates and separation of flavins (substrates and products) from reaction mixtures using TLC on Silica Gel SIL-G-25 plates (20 × 20 cm, thickness 0.25 mm) as previously described. […] Reactions were stopped by boiling the preparations for 5 min. Flavin spots were visualized under UV light.

For orientation: kcat means the maximal rate divided by the concentration of active sites. Usually Km stands for the substrate concentration at which the rate is half of its maximum.

As to `Cc1cc2nc3c(=O)[nH]c(=O)nc-3n(C[C@H](O)[C@H](O)[C@H](O)CO)c2cc1C` [RF, Riboflavin], the Ki stood at 46 ± 20 µM in assay [1]; 6.5 ± 1.9 µM in assay [2]; 39 ± 21 µM in assay [3]; 41 ± 13 µM in assay [4]; 32 ± 15 µM in assay [5]; 54 ± 29 µM in assay [6]. The Ki in assay [7] (RF substrate inhibition) is 4.9 ± 3.9 µM. Moreover, the kcat worked out at 140 ± 21 min⁻¹ in assay [1] (L98W CaFADS, RF varied, saturating ATP, apparent value, 20 mM PIPES, 0.8 mM MgCl2, pH 7.0, 25 °C); 45 ± 5 min⁻¹ in assay [2] (P56W CaFADS, RF varied, saturating ATP, apparent value, 20 mM PIPES, 0.8 mM MgCl2, pH 7.0, 25 °C); 98 ± 19 min⁻¹ in assay [3] (P58W CaFADS, RF varied, saturating ATP, apparent value, 20 mM PIPES, 0.8 mM MgCl2, pH 7.0, 25 °C); 248 ± 34 min⁻¹ in assay [4] (L98K CaFADS, RF varied, saturating ATP, apparent value, 20 mM PIPES, 0.8 mM MgCl2, pH 7.0, 25 °C); 138 ± 26 min⁻¹ in assay [5] (L98A CaFADS, RF varied, saturating ATP, apparent value, 20 mM PIPES, 0.8 mM MgCl2, pH 7.0, 25 °C); 78 ± 12 min⁻¹ in assay [6] (P56A/P58A CaFADS, RF varied, saturating ATP, apparent value, 20 mM PIPES, 0.8 mM MgCl2, pH 7.0, 25 °C). Also, in assay [7] (RF varied, apparent value), the catalytic constant (kcat) was 408 ± 200 min⁻¹. For the same molecule, the “decrease of Km^RF relative to WT” value in assay [2] (P56W CaFADS vs WT) is given as “up to 30 fold”. In addition, the Km in assay [7] (RF varied, apparent value, read-out: Km^RF) was 12 ± 3 µM. Moreover, the “RFK activity (transformation of RF), qualitative” value in assay [8] is reported as “All variants kept the RFK activity”.

The values are drawn from PMC6829536 (International Journal of Molecular Sciences, 2019).
